The values that follow come from ChEMBL document CHEMBL3797140, “Acridin-3,6-dialkyldithiourea hydrochlorides as new photosensitizers for photodynamic therapy of mouse leukemia cells” (Bioorg Med Chem, 2016).

The structures appear in SMILES notation.

Data set [1] in a line: Dark toxicity against mouse NIH/3T3 cells assessed as cell viability after 48 hrs by MTT assay. The data set is classed as cell-based, NIH3T3.
Data set [2] can be described thus: Dark toxicity against mouse L1210 cells assessed as cell viability after 48 hrs by MTT assay. It is filed as cell-based.
Data set [3] relates to L1210. The data set is described as follows: Phototoxicity against mouse L1210 cells assessed as cell viability preincubated for 1 hr followed by 1.05 J/cm2 UV-A irradiation measured after 48 hrs by MTT assay. As to conditions: L1210, light or radiation study. The data set is classed as functional, cell-based. For orientation: Tetrazolium assays rely on reduction of a dye to a coloured formazan, in cell work by metabolically active cells.

Data set [4] can be described thus: Phototoxicity against mouse NIH/3T3 cells assessed as cell viability preincubated for 1 hr followed by 1.05 J/cm2 UV-A irradiation measured after 48 hrs by MTT assay. The data set is classed as cell-based. The note with it: NIH3T3, light or radiation study.

A word on the IC50: it is the midpoint of a concentration-inhibition curve. In the case of `CCNC(=S)Nc1ccc2cc3ccc(NC(=S)NCC)cc3nc2c1`, the IC50 at 48 h in data set [1] worked out at 40.2 µM; in data set [2], 12 µM. Further, the 50% inhibitory concentration (IC50) came out at 900 nM in data set [3] and 2800 nM in data set [4].
